In test [1] the test system is μ opioid receptor. The experiment in a line: GPI. Further details: species or system guinea pig.
Test [2] addresses T1, δ opioid receptor (Mus musculus, UniProt P32300). The experiment in a line: MVD.
Test [3] has as its target T1, δ opioid receptor. Conditions: δ antagonist activity; ref Schiller et al.[10]; cited from earlier work.
Test [4] deals with μ opioid receptor. Conditions: result in words; ref Schiller et al.[10]; cited from earlier work.
For test [5], the target named is μ opioid receptor (UniProt P33535). Conditions: read-out: Ki^μ; ref Schiller et al.[10]; cited from earlier work.
Test [6] addresses κ opioid receptor (UniProt P41144). Conditions: read-out: Ki^κ; ref Schiller et al.[10]; cited from earlier work.

Like-named read-outs stand apart in the source and are kept apart here. Non-standard residues stand in square brackets, D forms with d. Residues, ends and D or L forms follow the SMILES beside them. Phe(2,6-Me2,4-CONH2) = Cc1cc(C(N)=O)cc(C)c1C[C@H](N)C(=O)O; Dmt = Cc1cc(O)cc(C)c1C[C@H](N)C(=O)O; Tic = O=C(O)[C@@H]1Cc2ccccc2CN1 Bounds are passed on as bounds.

As usually defined, the Ki is a dissociation constant, usually derived from enzyme kinetics or from competition with a known ligand.

T1 sequence (P32300 whole entry): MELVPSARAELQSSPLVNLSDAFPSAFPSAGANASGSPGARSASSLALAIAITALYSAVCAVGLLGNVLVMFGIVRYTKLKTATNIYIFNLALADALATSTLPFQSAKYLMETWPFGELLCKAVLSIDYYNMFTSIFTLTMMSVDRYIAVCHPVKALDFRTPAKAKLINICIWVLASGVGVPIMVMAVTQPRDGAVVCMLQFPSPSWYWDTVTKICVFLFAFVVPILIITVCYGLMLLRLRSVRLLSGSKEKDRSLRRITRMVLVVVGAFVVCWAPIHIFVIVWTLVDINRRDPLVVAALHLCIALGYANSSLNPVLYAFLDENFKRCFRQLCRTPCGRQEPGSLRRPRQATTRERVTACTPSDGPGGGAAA
Sequence of μ opioid receptor (UniProt P33535) (P33535 whole entry): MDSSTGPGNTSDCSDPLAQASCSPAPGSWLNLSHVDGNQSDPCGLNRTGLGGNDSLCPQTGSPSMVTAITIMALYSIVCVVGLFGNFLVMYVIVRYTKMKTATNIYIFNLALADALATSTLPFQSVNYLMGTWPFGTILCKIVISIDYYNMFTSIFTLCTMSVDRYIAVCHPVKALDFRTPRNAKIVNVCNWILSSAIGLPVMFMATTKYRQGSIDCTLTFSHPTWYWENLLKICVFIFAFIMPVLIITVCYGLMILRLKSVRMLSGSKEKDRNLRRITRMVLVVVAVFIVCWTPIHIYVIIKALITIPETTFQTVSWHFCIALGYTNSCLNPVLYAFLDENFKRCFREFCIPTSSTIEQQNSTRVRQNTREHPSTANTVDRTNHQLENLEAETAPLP
Sequence of κ opioid receptor (P41144 whole entry): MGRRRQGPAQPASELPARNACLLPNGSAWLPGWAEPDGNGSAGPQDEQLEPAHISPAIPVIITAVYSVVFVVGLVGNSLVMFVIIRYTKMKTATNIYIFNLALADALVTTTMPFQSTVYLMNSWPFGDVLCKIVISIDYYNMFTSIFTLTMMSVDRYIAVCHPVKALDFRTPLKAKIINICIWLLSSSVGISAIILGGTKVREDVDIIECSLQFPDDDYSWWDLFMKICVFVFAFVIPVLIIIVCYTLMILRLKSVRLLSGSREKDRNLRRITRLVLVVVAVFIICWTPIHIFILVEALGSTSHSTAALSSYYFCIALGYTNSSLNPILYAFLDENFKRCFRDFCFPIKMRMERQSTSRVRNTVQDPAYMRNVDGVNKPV

As to `N[C@@H](Cc1ccc(O)cc1)C(=O)N1Cc2ccccc2C[C@H]1C(=O)O` [compound 9, H-Tyr-Tic-OH] (H-Tyr-[Tic]-OH), in test [1] (result in words), the GPI activity result was “inactive”. The compound further yielded a Kb in test [2] of 263 ± 40 nM.
For H-[Dmt][Tic]FF-OH [compound 10], the “MVD Ke^δ” value in test [3] is reported as 0.196 ± 0.035 nM.
In the case of `Cc1cc(C(N)=O)cc(C)c1C[C@H](N)C(=O)N1Cc2ccccc2C[C@H]1C(=O)N[C@@H](Cc1ccccc1)C(=O)N[C@@H](Cc1ccccc1)C(=O)O` [compound 12, H-Cdp-Tic-Phe-Phe-OH] (H-[Phe(2,6-Me2,4-CONH2)][Tic]FF-OH), in test [1] (μ antagonist activity), the “GPI Ke^μ” value amounted to 3.07 ± 0.26 µM. Moreover, the Kb in test [2] was 0.627 ± 0.058 nM.
For H-Y[Tic]FF-OH [compound 8], the “MVD Ke^δ” value in test [3] is recorded as 4.80 ± 0.20 nM.
For the compound H-[Dmt]-[Tic]-OH [compound 11], the GPI activity result in test [4] was “inactive”. The Ki in test [5] was 1360 ± 160 nM; in test [6], > 1000 nM.
